Target: EmrR-His6 (EmrR) (Salmonella enterica, UniProt Q7CPY9)
Assay: EMSA, release of EmrR-His6 from […]-labelled pagC-pagD promoter DNA
Conditions: dopamine 1, 10, 100 uM; 50 pmol EmrR-His6 in 20 ul; room temperature, 30 min; DNA-binding inhibition

Chain of EmrR-His6 (EmrR) (Q7CPY9 entry or part of it): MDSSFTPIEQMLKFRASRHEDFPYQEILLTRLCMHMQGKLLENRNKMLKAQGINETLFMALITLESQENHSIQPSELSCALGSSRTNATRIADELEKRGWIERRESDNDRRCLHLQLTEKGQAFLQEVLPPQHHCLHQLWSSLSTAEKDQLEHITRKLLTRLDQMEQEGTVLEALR

NCCc1ccc(O)c(O)c1 [dopamine]
EMSA, release of EmrR-His6 from 32P-labelled pagC-pagD promoter DNA: dopamine alone was sufficient to reduce the affinity of a pure EmrR protein

From paper PMC6469979, “A Dopamine-Responsive Signal Transduction Controls Transcription of Salmonella enterica Serovar Typhimurium Virulence Genes” (mBio, 2019)
